The values that follow come from ChEMBL document CHEMBL1687865, “Antifungal lipopeptides from Bacillus amyloliquefaciens strain BO7” (J Nat Prod, 2011).

The term EC50 denotes the concentration that produces a half-maximal response.

Test [1] in a line: Antifungal activity against Fusarium oxysporum f. sp. lycopersici 4287 assessed as reduction in mycelium growth at 100 ppm after 72 hrs by spectrophotometric analysis. The test is classed as functional. On the set-up: scale not given: the % may be the effect or the level left.
Test [2] is described as follows: Antifungal activity against Fusarium oxysporum f. sp. lycopersici 4287 assessed as reduction in mycelium growth at 50 ppm after 72 hrs by spectrophotometric analysis. In kind it is functional. On the set-up: scale not given: the % may be the effect or the level left.
The subject of another test is Penicillium digitatum. Nature of the test: […] activity against Penicillium digitatum. The test is classed as functional, organism-based.

≈ marks a conversion by molar mass, not a printed value. *1 amine or outer side, *2 acyl side, *3 side chain or, on linkers, in order; H or OH if unused. Where a SMILES comes first, the peptide text is derived from it. Bridges are numbered along the chain shown (N, C = ends). X1 = CCCCCCCCCCCCCCC[C@H](CC(=O)[*:1])O[*:2]; X2 = CCCCCCCCCCCCCC[C@H](CC(=O)[*:1])O[*:2]; X3 = CCCCCCCCCCCCC[C@H](CC(=O)[*:1])O[*:2]

Take `CCCCCCCCCCCCCC[C@@H]1CC(=O)N[C@@H](CCC(=O)O)C(=O)N[C@@H](CC(C)C)C(=O)N[C@@H](CC(C)C)C(=O)N[C@@H](C)C(=O)N[C@@H](CC(=O)O)C(=O)N[C@@H](CC(C)C)C(=O)N[C@@H](CC(C)C)C(=O)O1` (ELLADLL; linker N-C via X2): the Activity in test [1] is 11%.

Turning to `CCCCCCCCCCCCCCC[C@@H]1CC(=O)N[C@@H](CCC(=O)O)C(=O)N[C@@H](CC(C)C)C(=O)N[C@@H](CC(C)C)C(=O)N[C@@H](C)C(=O)N[C@@H](CC(=O)O)C(=O)N[C@@H](CC(C)C)C(=O)N[C@@H](CC(C)C)C(=O)O1` (ELLADLL; linker N-C via X1), the Activity in test [1] was found to be 56%; in test [2], 25%. The EC50 in the test on Penicillium digitatum amounted to 88.5 µg/mL (≈ 84.2 µM).

With `CCCCCCCCCCCCC[C@@H]1CC(=O)N[C@@H](CCC(=O)O)C(=O)N[C@@H](CC(C)C)C(=O)N[C@@H](CC(C)C)C(=O)N[C@@H](C)C(=O)N[C@@H](CC(=O)O)C(=O)N[C@@H](CC(C)C)C(=O)N[C@@H](CC(C)C)C(=O)O1` (ELLADLL; linker N-C via X3), the Activity in test [1] amounted to 29%.
